Tests used:
Format in all cases: in vivo
Eclipta prostrata = assay: Greenhouse herbicidal activity assay, post-emergence; conditions: Post-emergence test, rate 150 g a.i./hm^2, grade by fresh weight inhibition rate
Summary of the method: (§1)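 Graded A (≥80%) to E (<20%) by fresh weight inhibition, read 14-21 days after spraying. Plants were pot-grown in a growth chamber and received foliar application at the 3-6 leaf stage, being air-dried and returned to the chamber afterwards.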

Echinochloa crusgalli [1] = assay: as above; conditions: Post-emergence test, rate 150 g a.i./hm^2, grade by fresh weight inhibition rate
Summary of the method: as §1

Cyperus iria = assay: as above; conditions: Post-emergence test, rate 150 g a.i./hm^2, grade by fresh weight inhibition rate
Summary of the method: as §1

Digitaria sanguinalis = assay: as above; conditions: Post-emergence test, rate 150 g a.i./hm^2, grade by fresh weight inhibition rate
Summary of the method: as §1

Leptochloa chinensis [2] = assay: as above; conditions: Post-emergence test, rate 150 g a.i./hm^2, grade by fresh weight inhibition rate
Summary of the method: as §1

[3] = system: Oryza sativa subsp. japonica; assay: Greenhouse herbicidal activity and crop safety comparison (Test Example 2)
From the text: (§2) Pre-emergence: Seeds of gramineous weeds (Echinochloa crusgalli, Echinochloa crusgalli var. zelayensis, Echinochloa phyllopogon, Eleusine indica, Digitaria sanguinalis, Leptochloa chinensis, Setaria viridis, Alopecurus japonicus Steud, Beckmannia syzigachne, Polypogon fugax, Alopecurus aequalis, Lolium multiflorum, Poa annua, Aegilops tataschii, Avena fatua, Alopecurus myosuroides, Bromus japonicus), broadleaf weeds (Eclipta prostrata, Amaranthus retroflexus, Rorippa indica, Myosoton aquaticum, Veronica didyma, Galium aparine, Solanum nigrum, Xanthium sibiricum, Conyza canadensis, Sesbania cannabina, Sagittaria trifolia), and Cyperus iria (Cyperus iria, Scirpus juncoides, Cyperus difformis, etc.) were sown in plastic pots (7 cm diameter) with nutrient soil and bottom holes. Crop seeds (including Oryza sativa subsp. indica, Oryza sativa subsp. japonica, Oryza sativa L. var. Glutinosa matsum, Triticum aestivum, Zea mays, Sorghum bicolor, Setaria italica, Glycine max, Gossypium hirsutum, Brassica napus, Arachis hypogaea) were sown in plastic pots (10 cm diameter) with nutrient soil and bottom holes. After sowing, the seeds were lightly covered with soil, and the soil was moistened via bottom water absorption. The pots were placed in a constant-temperature light-controlled growth chamber for 24 hours before soil spraying. Spraying was performed using a 3WP-2000 walking-type spray tower (produced by the Nanjing Agricultural Mechanization Institute, Ministry of Agriculture) with a spindle speed of 96 mm/r, spray height of 300 mm, effective spray width of 350 mm, spray area of 0.35 m^2, and nozzle flow rate of 390 mL/min.
(§3) After treatment, the test materials were air-dried naturally in the laboratory and then transferred to the growth chamber. Results were assessed 14-30 days later.
(§4) Post-emergence: Seeds of gramineous weeds (Echinochloa crusgalli, Echinochloa crusgalli var. zelayensis, Echinochloa phyllopogon, Eleusine indica, Digitaria sanguinalis, Leptochloa chinensis, Setaria viridis, Alopecurus japonicus Steud, Beckmannia syzigachne, Polypogon fugax, Alopecurus aequalis, Lolium multiflorum, Poa annua, Aegilops tataschii, Avena fatua, Alopecurus myosuroides, Bromus japonicus), broadleaf weeds (Eclipta prostrata, Amaranthus retroflexus, Rorippa indica, Myosoton aquaticum, Veronica didyma, Galium aparine, Solanum nigrum, Xanthium sibiricum, Conyza canadensis, Sesbania cannabina, Sagittaria trifolia), and Cyperus iria (Cyperus iria, Scirpus juncoides, Cyperus difformis, etc.) were sown in plastic pots (7 cm diameter) with nutrient soil and bottom holes. Crop seeds (including Oryza sativa subsp. indica, Oryza sativa subsp. japonica, Oryza sativa L. var. Glutinosa matsum, Triticum aestivum, Zea mays, Sorghum bicolor, Setaria italica, Glycine max, Gossypium hirsutum, Brassica napus, Arachis hypogaea) were sown in plastic pots (10 cm diameter) with nutrient soil and bottom holes. After sowing, the pots were placed in the growth chamber until the plants reached the 3-6 leaf stage for foliar spraying. Post-treatment, the materials were air-dried naturally and returned to the growth chamber. Results were assessed 14-21 days later.
(§5) • A: Fresh weight inhibition rate≥80% to 100%; • B: Fresh weight inhibition rate[…] to <80%; • C: Fresh weight inhibition rate≥40% to <60%; • D: Fresh weight inhibition rate≥20% to <40%; • E: Fresh weight inhibition rate<20%; • NT: Not tested.
(§6) Using the above method, the herbicidal activity and crop safety of the present compounds were compared with structurally similar known compounds (CK1, CK2, CK3, CK4: compounds 4-756, 4-759, 1-557, 1-563 from WO2012028579A1; CK5: compound 290-1 from WO2013087577A1; CK6: compound 1-129 from WO2011035874A1).

Echinochloa crusgalli [4] = assay: as above
From the text: as §2, §3, §4, §5, §6

[5] = system: Oryza sativa subsp. indica; assay: as above
From the text: as §2, §3, §4, §5, §6

Leptochloa chinensis [6] = assay: as above; conditions: Rate 150 g/ha
From the text: as §2, §3, §4, §5, §6

SMILES: CCC(C)S(=O)(=O)c1c(S(C)(=O)=O)ccc(C(=O)Nc2nnnn2C)c1Cl (racemic) [Compound 1-24]
- Control efficacy grade, Eclipta prostrata (Eclipta prostrata): A (Fresh weight inhibition rate≥80% to 100%)
- Control efficacy grade, Echinochloa crusgalli (Echinochloa crusgalli [1]): A (Fresh weight inhibition rate≥80% to 100%)
- Control efficacy grade, Cyperus iria (Cyperus iria): A (Fresh weight inhibition rate≥80% to 100%)
- Control efficacy grade, Digitaria sanguinalis (Digitaria sanguinalis): B (Fresh weight inhibition rate≥260% to <80%)
- Control efficacy grade, Leptochloa chinensis (Leptochloa chinensis [2]): A (Fresh weight inhibition rate≥80% to 100%)
- Oryza sativa subsp. japonica, grading of fresh weight inhibition rate (crop safety) ([3]; Rate 150 g/ha): E (Fresh weight inhibition rate<20%)
- Echinochloa crusgalli, control efficacy grading (fresh weight inhibition rate) (Echinochloa crusgalli [4]; Rate 150 g/ha): A (Fresh weight inhibition rate≥80% to 100%)
- Oryza sativa subsp. indica, grading of fresh weight inhibition rate (crop safety) ([5]; Rate 150 g/ha): E (Fresh weight inhibition rate<20%)

SMILES: CCCS(=O)(=O)c1c(S(C)(=O)=O)ccc(C(=O)Nc2nnnn2C)c1Cl [Compound 1-5, 2-chloro-N-(1-methyl-1H-tetrazol-5-yl)-4-(methylsulfonyl)-3-(propylsulfonyl)benzamide]
- pest or weed control at 150 g/ha (Eclipta prostrata; Eclipta prostrata, read-out: Control efficacy grade, Eclipta prostrata): 80 to 100%
- pest or weed control at 150 g/ha (Echinochloa crusgalli [1]; Echinochloa crus-galli, read-out: Control efficacy grade, Echinochloa crusgalli): 80 to 100%
- pest or weed control at 150 g/ha (Cyperus iria; Cyperus iria, read-out: Control efficacy grade, Cyperus iria): 80 to 100%
- pest or weed control at 150 g/ha (Digitaria sanguinalis; Digitaria sanguinalis, read-out: Control efficacy grade, Digitaria sanguinalis): 80 to 100%
- pest or weed control at 150 g/ha (Leptochloa chinensis [2]; Dinebra chinensis, read-out: Control efficacy grade, Leptochloa chinensis): 80 to 100%
- Oryza sativa subsp. japonica, grading of fresh weight inhibition rate (crop safety) ([3]; Rate 150 g/ha): E (Fresh weight inhibition rate<20%)
- inhibition at 150 g/ha (Echinochloa crusgalli [4]; Echinochloa crus-galli, Rate 150 g/ha, read-out: Echinochloa crusgalli, control efficacy grading (fresh weight inhibition rate)): 80 to 100%
- Oryza sativa subsp. indica, grading of fresh weight inhibition rate (crop safety) ([5]; Rate 150 g/ha): E (Fresh weight inhibition rate<20%)

SMILES: CC(C)S(=O)(=O)c1c(S(C)(=O)=O)ccc(C(=O)Nc2nnnn2C)c1Cl [Compound 1-10]
- Control efficacy grade, Eclipta prostrata (Eclipta prostrata): A (Fresh weight inhibition rate≥80% to 100%)
- Control efficacy grade, Echinochloa crusgalli (Echinochloa crusgalli [1]): A (Fresh weight inhibition rate≥80% to 100%)
- Control efficacy grade, Cyperus iria (Cyperus iria): A (Fresh weight inhibition rate≥80% to 100%)
- Control efficacy grade, Digitaria sanguinalis (Digitaria sanguinalis): A (Fresh weight inhibition rate≥80% to 100%)
- Control efficacy grade, Leptochloa chinensis (Leptochloa chinensis [2]): A (Fresh weight inhibition rate≥80% to 100%)
- Oryza sativa subsp. japonica, grading of fresh weight inhibition rate (crop safety) ([3]; Rate 150 g/ha): E (Fresh weight inhibition rate<20%)
- Echinochloa crusgalli, control efficacy grading (fresh weight inhibition rate) (Echinochloa crusgalli [4]; Rate 150 g/ha): A (Fresh weight inhibition rate≥80% to 100%)
- Oryza sativa subsp. indica, grading of fresh weight inhibition rate (crop safety) ([5]; Rate 150 g/ha): E (Fresh weight inhibition rate<20%)

SMILES: Cn1nnnc1NC(=O)c1ccc(S(C)(=O)=O)c(S(=O)(=O)CC2CC2)c1Cl [Compound 1-31]
- Control efficacy grade, Eclipta prostrata (Eclipta prostrata): A (Fresh weight inhibition rate≥80% to 100%)
- Control efficacy grade, Echinochloa crusgalli (Echinochloa crusgalli [1]): A (Fresh weight inhibition rate≥80% to 100%)
- Control efficacy grade, Cyperus iria (Cyperus iria): A (Fresh weight inhibition rate≥80% to 100%)
- Control efficacy grade, Digitaria sanguinalis (Digitaria sanguinalis): A (Fresh weight inhibition rate≥80% to 100%)
- Control efficacy grade, Leptochloa chinensis (Leptochloa chinensis [2]): A (Fresh weight inhibition rate≥80% to 100%)
- Oryza sativa subsp. japonica, grading of fresh weight inhibition rate (crop safety) ([3]; Rate 150 g/ha): E (Fresh weight inhibition rate<20%)
- Echinochloa crusgalli, control efficacy grading (fresh weight inhibition rate) (Echinochloa crusgalli [4]; Rate 150 g/ha): A (Fresh weight inhibition rate≥80% to 100%)
- Oryza sativa subsp. indica, grading of fresh weight inhibition rate (crop safety) ([5]; Rate 150 g/ha): E (Fresh weight inhibition rate<20%)

SMILES: Cn1nnnc1NC(=O)c1ccc(S(C)(=O)=O)c(S(=O)(=O)C2CC2)c1Cl [Compound 1-36]
- Control efficacy grade, Eclipta prostrata (Eclipta prostrata): A (Fresh weight inhibition rate≥80% to 100%)
- Control efficacy grade, Echinochloa crusgalli (Echinochloa crusgalli [1]): A (Fresh weight inhibition rate≥80% to 100%)
- Control efficacy grade, Cyperus iria (Cyperus iria): A (Fresh weight inhibition rate≥80% to 100%)
- Control efficacy grade, Digitaria sanguinalis (Digitaria sanguinalis): A (Fresh weight inhibition rate≥80% to 100%)
- Control efficacy grade, Leptochloa chinensis (Leptochloa chinensis [2]): A (Fresh weight inhibition rate≥80% to 100%)
- Oryza sativa subsp. japonica, grading of fresh weight inhibition rate (crop safety) ([3]; Rate 150 g/ha): E (Fresh weight inhibition rate<20%)
- Echinochloa crusgalli, control efficacy grading (fresh weight inhibition rate) (Echinochloa crusgalli [4]; Rate 150 g/ha): A (Fresh weight inhibition rate≥80% to 100%)
- Oryza sativa subsp. indica, grading of fresh weight inhibition rate (crop safety) ([5]; Rate 150 g/ha): E (Fresh weight inhibition rate<20%)

SMILES: Cn1nnnc1NC(=O)c1ccc(S(C)(=O)=O)c(S(=O)(=O)C2CCC2)c1Cl [Compound 1-41]
- Control efficacy grade, Eclipta prostrata (Eclipta prostrata): A (Fresh weight inhibition rate≥80% to 100%)
- Control efficacy grade, Echinochloa crusgalli (Echinochloa crusgalli [1]): A (Fresh weight inhibition rate≥80% to 100%)
- Control efficacy grade, Cyperus iria (Cyperus iria): A (Fresh weight inhibition rate≥80% to 100%)
- Control efficacy grade, Leptochloa chinensis (Leptochloa chinensis [2]): A (Fresh weight inhibition rate≥80% to 100%)
- Oryza sativa subsp. japonica, grading of fresh weight inhibition rate (crop safety) ([3]; Rate 150 g/ha): E (Fresh weight inhibition rate<20%)
- Echinochloa crusgalli, control efficacy grading (fresh weight inhibition rate) (Echinochloa crusgalli [4]; Rate 150 g/ha): A (Fresh weight inhibition rate≥80% to 100%)
- Oryza sativa subsp. indica, grading of fresh weight inhibition rate (crop safety) ([5]; Rate 150 g/ha): E (Fresh weight inhibition rate<20%)

SMILES: Cn1nnnc1NC(=O)c1ccc(S(C)(=O)=O)c(S(=O)(=O)C2CCCC2)c1Cl [Compound 1-46]
- Control efficacy grade, Eclipta prostrata (Eclipta prostrata): A (Fresh weight inhibition rate≥80% to 100%)
- Control efficacy grade, Echinochloa crusgalli (Echinochloa crusgalli [1]): A (Fresh weight inhibition rate≥80% to 100%)
- Control efficacy grade, Cyperus iria (Cyperus iria): A (Fresh weight inhibition rate≥80% to 100%)
- Oryza sativa subsp. japonica, grading of fresh weight inhibition rate (crop safety) ([3]; Rate 150 g/ha): E (Fresh weight inhibition rate<20%)
- Echinochloa crusgalli, control efficacy grading (fresh weight inhibition rate) (Echinochloa crusgalli [4]; Rate 150 g/ha): A (Fresh weight inhibition rate≥80% to 100%)
- Oryza sativa subsp. indica, grading of fresh weight inhibition rate (crop safety) ([5]; Rate 150 g/ha): E (Fresh weight inhibition rate<20%)

SMILES: C=CCS(=O)(=O)c1c(S(C)(=O)=O)ccc(C(=O)Nc2nnnn2C)c1Cl [Compound 1-71]
- Control efficacy grade, Eclipta prostrata (Eclipta prostrata): A (Fresh weight inhibition rate≥80% to 100%)
- Control efficacy grade, Echinochloa crusgalli (Echinochloa crusgalli [1]): A (Fresh weight inhibition rate≥80% to 100%)
- Control efficacy grade, Cyperus iria (Cyperus iria): A (Fresh weight inhibition rate≥80% to 100%)
- Control efficacy grade, Digitaria sanguinalis (Digitaria sanguinalis): A (Fresh weight inhibition rate≥80% to 100%)
- Control efficacy grade, Leptochloa chinensis (Leptochloa chinensis [2]): A (Fresh weight inhibition rate≥80% to 100%)
- Oryza sativa subsp. japonica, grading of fresh weight inhibition rate (crop safety) ([3]; Rate 250 g/ha): E (Fresh weight inhibition rate<20%)
- Echinochloa crusgalli, control efficacy grading (fresh weight inhibition rate) (Echinochloa crusgalli [4]; Rate 250 g/ha): A (Fresh weight inhibition rate≥80% to 100%)
- Oryza sativa subsp. indica, grading of fresh weight inhibition rate (crop safety) ([5]; Rate 250 g/ha): E (Fresh weight inhibition rate<20%)

SMILES: Cc1nnc(NC(=O)c2ccc(S(C)(=O)=O)c(S(=O)(=O)CCCl)c2Cl)o1 [Compound 3-216]
- Control efficacy grade, Leptochloa chinensis (Leptochloa chinensis [2]): A (Fresh weight inhibition rate≥80% to 100%)
- Oryza sativa subsp. japonica, grading of fresh weight inhibition rate (crop safety) ([3]; Rate 150 g/ha): E (Fresh weight inhibition rate<20%)
- Oryza sativa subsp. indica, grading of fresh weight inhibition rate (crop safety) ([5]; Rate 150 g/ha): E (Fresh weight inhibition rate<20%)
- Leptochloa chinensis, control efficacy grading (fresh weight inhibition rate) (Leptochloa chinensis [6]): A (Fresh weight inhibition rate≥80% to 100%)

SMILES: CC(C)c1nnc(NC(=O)c2ccc(S(C)(=O)=O)c(S(=O)(=O)C3CCCC3)c2Cl)o1 [Compound 3-549]
- Control efficacy grade, Eclipta prostrata (Eclipta prostrata): A (Fresh weight inhibition rate≥80% to 100%)
- Control efficacy grade, Cyperus iria (Cyperus iria): A (Fresh weight inhibition rate≥80% to 100%)
- Control efficacy grade, Leptochloa chinensis (Leptochloa chinensis [2]): A (Fresh weight inhibition rate≥80% to 100%)
- Oryza sativa subsp. japonica, grading of fresh weight inhibition rate (crop safety) ([3]; Rate 150 g/ha): E (Fresh weight inhibition rate<20%)
- Oryza sativa subsp. indica, grading of fresh weight inhibition rate (crop safety) ([5]; Rate 150 g/ha): E (Fresh weight inhibition rate<20%)
- Leptochloa chinensis, control efficacy grading (fresh weight inhibition rate) (Leptochloa chinensis [6]): A (Fresh weight inhibition rate≥80% to 100%)
